Experimental data published in the supplement of paper PMC10627819.

Legend:
S. pneumoniae D39V [1] = assay: fitness (endpoint OD595 vs no drug) (fraction); higher = more growth
Method in brief: (§1)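 At 37 °C, bacteria in TSB, LB Lennox or CY were grown in 384-well plates from a starting OD595 of 0.01. OD595 was measured every 30 min for 14 h, with the first reading used as background. Fitness is the optical density at the switch to stationary phase as a fraction of the robust mean of no-drug control wells, capped at 1.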

B. subtilis 168 [2] = assay: as above
Method in brief: as §1

S. aureus DSM 20231 = assay: Bliss interaction score (quartile over a dose matrix) (fitness difference); higher = more antagonism (negative = synergy)
Method in brief: (§2)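 The Bliss score takes observed fitness and subtracts the expected fitness, calculated as a product of single-drug fitness values. Those single-drug values were inferred from the combination data. Fitness is OD595 at entry into stationary phase divided by the plate's robust no-drug mean, capped at 1, and the score is summarised by quartiles across technical, biological and donor/recipient replicates.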

S. aureus Newman = assay: as above
Method in brief: as §2

S. pneumoniae D39V [3] = assay: as above
Method in brief: as §2

B. subtilis 168 [4] = assay: as above
Method in brief: as §2
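Throughout, for Bliss interaction score (quartile over a dose matrix): first quartile when negative (synergy) and third quartile when positive (antagonism).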
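Throughout, for fitness (endpoint OD595 vs no drug): OD595 on entry to stationary phase over no-drug wells; at most 1.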

CN(C)C(=O)C(CCN1CCC(O)(c2ccc(Cl)cc2)CC1)(c1ccccc1)c1ccccc1 [Loperamide] + CN(N=O)C(=O)N[C@@H](C=O)[C@@H](O)[C@H](O)[C@H](O)CO [Streptozotocin]
fitness, S. pneumoniae D39V [1]
Conditions | partner 1.2 µg/mL | partner 2.4 µg/mL | partner 4.8 µg/mL
first compound 17.14 µg/mL | 0.962 | 0.943 | 0.974
first compound 34.28 µg/mL | 0.956 | 0.982 | 0.978

fitness, one replicate
Conditions | first compound 20 µg/mL | first compound 25 µg/mL | first compound 40 µg/mL | first compound 50 µg/mL | first compound 68.57 µg/mL | first compound 80 µg/mL | first compound 100 µg/mL
B. subtilis 168 [2], partner 0.15 µg/mL | – | 0.843 | – | 0.0229 | – | – | 0.0221
B. subtilis 168 [2], partner 0.3 µg/mL | – | 0.802 | – | 0.0269 | – | – | 0.0127
B. subtilis 168 [2], partner 0.6 µg/mL | – | 0.821 | – | 0.025 | – | – | 0.02
S. pneumoniae D39V [1], partner 1.2 µg/mL | ≥ 1 | – | ≥ 1 | – | 0.971 | 0.0146 | –
S. pneumoniae D39V [1], partner 2.4 µg/mL | ≥ 1 | – | ≥ 1 | – | 0.929 | 0.0167 | –
S. pneumoniae D39V [1], partner 4.8 µg/mL | ≥ 1 | – | ≥ 1 | – | ≥ 1 | 0 | –

Conditions | Bliss interaction score
B. subtilis 168 [4] | -0.0219
S. aureus DSM 20231 | 0.103
S. aureus Newman | 0.0514
S. pneumoniae D39V [3] | 0.0707

CN(C)C(=O)C(CCN1CCC(O)(c2ccc(Cl)cc2)CC1)(c1ccccc1)c1ccccc1 [Loperamide] + CN[C@@H]1[C@H](O)[C@H](NC)[C@H]2O[C@@]3(O)C(=O)C[C@@H](C)O[C@H]3O[C@@H]2[C@H]1O [Spectinomycin]
fitness
Conditions | partner 2 µg/mL | partner 4 µg/mL | partner 8 µg/mL | partner 16 µg/mL
B. subtilis 168 [2], first compound 25 µg/mL | 0.812 | 0.78 | 0.566 | –
S. pneumoniae D39V [1], first compound 17.14 µg/mL | – | 0.983 | 0.974 | 0.93
S. pneumoniae D39V [1], first compound 34.28 µg/mL | – | 0.994 | 0.909 | 0.929

fitness, S. pneumoniae D39V [1], one replicate
Conditions | first compound 20 µg/mL | first compound 40 µg/mL | first compound 68.57 µg/mL | first compound 80 µg/mL
partner 4 µg/mL | ≥ 1 | ≥ 1 | ≥ 1 | 0.977
partner 8 µg/mL | ≥ 1 | ≥ 1 | ≥ 1 | 0.966
partner 16 µg/mL | – | – | 0.983 | –

Conditions | Bliss interaction score
B. subtilis 168 [4] | 0.354
S. aureus DSM 20231 | 0.104
S. aureus Newman | -0.103
S. pneumoniae D39V [3] | 0.126

CN(C)C(=O)C(CCN1CCC(O)(c2ccc(Cl)cc2)CC1)(c1ccccc1)c1ccccc1 [Loperamide] + CN[C@@H]1[C@H](O[C@H]2[C@H](O[C@H]3[C@H](O)[C@@H](O)[C@H](N=C(N)N)[C@@H](O)[C@@H]3N=C(N)N)O[C@@H](C)[C@]2(O)C=O)O[C@@H](CO)[C@H](O)[C@H]1O [Streptomycin]
fitness
Conditions | partner 2 µg/mL | partner 4 µg/mL | partner 8 µg/mL
B. subtilis 168 [2], first compound 25 µg/mL | 0.643 | 0.106 | 0.0172
B. subtilis 168 [2], first compound 50 µg/mL | 0.0768 | 0.0399 | 0.019
B. subtilis 168 [2], first compound 100 µg/mL | 0.0865 | 0.0369 | 0.0223
S. pneumoniae D39V [1], first compound 17.14 µg/mL | 0.941 | 0.98 | 0.961
S. pneumoniae D39V [1], first compound 20 µg/mL | – | ≥ 1 | 0.987
S. pneumoniae D39V [1], first compound 34.28 µg/mL | 0.948 | 0.992 | 0.967
S. pneumoniae D39V [1], first compound 40 µg/mL | – | 0.997 | ≥ 1

fitness, S. pneumoniae D39V [1], one replicate
Conditions | first compound 20 µg/mL | first compound 40 µg/mL | first compound 68.57 µg/mL | first compound 80 µg/mL
partner 2 µg/mL | ≥ 1 | ≥ 1 | 0.871 | 0.86
partner 4 µg/mL | – | – | 0.973 | –
partner 8 µg/mL | – | – | 0.966 | –
partner 16 µg/mL | 0.918 | 0.931 | – | 0.107

Conditions | Bliss interaction score
B. subtilis 168 [4] | -0.0818
S. aureus DSM 20231 | -0.236
S. aureus Newman | 0.0869
S. pneumoniae D39V [3] | 0.125

CN(C)C(=O)C(CCN1CCC(O)(c2ccc(Cl)cc2)CC1)(c1ccccc1)c1ccccc1 [Loperamide] + COc1c(N2C[C@@H]3CCCN[C@@H]3C2)c(F)cc2c(=O)c(C(=O)O)cn(C3CC3)c12 [Moxifloxacin]
Conditions | fitness
B. subtilis 168 [2], first compound 25 µg/mL, partner 0.0312 µg/mL | 0.0408
B. subtilis 168 [2], first compound 25 µg/mL, partner 0.0625 µg/mL | 0.0524
B. subtilis 168 [2], first compound 25 µg/mL, partner 0.125 µg/mL | 0.0382
B. subtilis 168 [2], first compound 25 µg/mL, partner 2 µg/mL | 0.0259
B. subtilis 168 [2], first compound 25 µg/mL, partner 4 µg/mL | 0.0205
B. subtilis 168 [2], first compound 25 µg/mL, partner 8 µg/mL | 0.017
B. subtilis 168 [2], first compound 50 µg/mL, partner 0.0312 µg/mL | 0.0458
B. subtilis 168 [2], first compound 50 µg/mL, partner 0.0625 µg/mL | 0.0525
B. subtilis 168 [2], first compound 50 µg/mL, partner 0.125 µg/mL | 0.068
B. subtilis 168 [2], first compound 50 µg/mL, partner 2 µg/mL | 0.0274
B. subtilis 168 [2], first compound 50 µg/mL, partner 4 µg/mL | 0.0294
B. subtilis 168 [2], first compound 50 µg/mL, partner 8 µg/mL | 0.0145
B. subtilis 168 [2], first compound 100 µg/mL, partner 0.0312 µg/mL | 0.0464
B. subtilis 168 [2], first compound 100 µg/mL, partner 0.0625 µg/mL | 0.0527
B. subtilis 168 [2], first compound 100 µg/mL, partner 0.125 µg/mL | 0.0413
B. subtilis 168 [2], first compound 100 µg/mL, partner 2 µg/mL | 0.0272
B. subtilis 168 [2], first compound 100 µg/mL, partner 4 µg/mL | 0.0176
B. subtilis 168 [2], first compound 100 µg/mL, partner 8 µg/mL | 0.0179
S. pneumoniae D39V [1], first compound 17.14 µg/mL, partner 0.0037 µg/mL | 0.897
S. pneumoniae D39V [1], first compound 17.14 µg/mL, partner 0.0075 µg/mL | 0.952
S. pneumoniae D39V [1], first compound 17.14 µg/mL, partner 0.015 µg/mL | 0.85
S. pneumoniae D39V [1], first compound 20 µg/mL, partner 0.005 µg/mL | ≥ 1
S. pneumoniae D39V [1], first compound 20 µg/mL, partner 0.01 µg/mL | ≥ 1
S. pneumoniae D39V [1], first compound 20 µg/mL, partner 0.02 µg/mL | ≥ 1
S. pneumoniae D39V [1], first compound 34.28 µg/mL, partner 0.0037 µg/mL | 0.822
S. pneumoniae D39V [1], first compound 34.28 µg/mL, partner 0.0075 µg/mL | 0.905
S. pneumoniae D39V [1], first compound 34.28 µg/mL, partner 0.015 µg/mL | 0.836
S. pneumoniae D39V [1], first compound 40 µg/mL, partner 0.005 µg/mL | ≥ 1
S. pneumoniae D39V [1], first compound 40 µg/mL, partner 0.01 µg/mL | ≥ 1
S. pneumoniae D39V [1], first compound 40 µg/mL, partner 0.02 µg/mL | ≥ 1

S. pneumoniae D39V [1], first compound 68.57 µg/mL, one replicate
Conditions | fitness
partner 0.0037 µg/mL | 0.729
partner 0.0075 µg/mL | 0.796
partner 0.015 µg/mL | 0.779

Conditions | Bliss interaction score
B. subtilis 168 [4] | 0.035
S. aureus DSM 20231 | 0.13
S. aureus Newman | 0.0359
S. pneumoniae D39V [3] | 0.0769

CN(C)C(=O)C(CCN1CCC(O)(c2ccc(Cl)cc2)CC1)(c1ccccc1)c1ccccc1 [Loperamide] + COc1ccc(C[C@H](N)C(=O)N[C@H]2[C@@H](O)[C@H](n3cnc4c(N(C)C)ncnc43)O[C@@H]2CO)cc1 [Puromycin]
fitness
Conditions | partner 0.39 µg/mL | partner 0.78 µg/mL | partner 1 µg/mL | partner 1.56 µg/mL | partner 2 µg/mL | partner 4 µg/mL
B. subtilis 168 [2], first compound 25 µg/mL | 0.82 | 0.767 | – | 0.718 | – | –
B. subtilis 168 [2], first compound 50 µg/mL | 0.0429 | 0.038 | – | 0.0393 | – | –
B. subtilis 168 [2], first compound 100 µg/mL | 0.0261 | 0.0107 | – | 0.0233 | – | –
S. pneumoniae D39V [1], first compound 17.14 µg/mL | – | – | 0.999 | – | 0.965 | 0.872
S. pneumoniae D39V [1], first compound 34.28 µg/mL | – | – | 0.988 | – | 0.952 | 0.813

fitness, S. pneumoniae D39V [1], one replicate
Conditions | first compound 20 µg/mL | first compound 40 µg/mL | first compound 68.57 µg/mL | first compound 80 µg/mL
partner 1 µg/mL | 0.951 | 0.899 | 0.997 | 0.159
partner 2 µg/mL | 0.951 | 0.93 | 0.956 | 0.129
partner 4 µg/mL | 0.835 | 0.828 | 0.908 | 0.0785

Conditions | Bliss interaction score
B. subtilis 168 [4] | -0.121
S. aureus DSM 20231 | -0.192
S. aureus Newman | -0.0477
S. pneumoniae D39V [3] | 0.0779
